Test results from patent US11634466B2, “Musclin peptides and methods of use thereof” (UNIVERSITY OF IOWA RESEARCH FOUNDATION, priority 2016, dated 2023).

What was measured:
[1] = system: WT and Ostn-KO mice; assay: Voluntary exercise performance on running wheels during musclin infusion; assay type: in vivo
Description: Whole body composition was obtained by time-domain nuclear magnetic resonance under isoflurane anesthesia (Bruker Minispec; Billerica, Mass.). Osmotic pumps: Osmotic pumps (model 1004, 100 μl volume, 0.11 μl/hr release rate, 28 days duration, Alzet Durect, Cupertino, Calif.), loaded with saline vs. 50 μg of mouse musclin peptide (SFSGFGSPLDRLSAG SVEHRGKQRKAVDHSKKR (SEQ ID NO: 4), corresponding to amino acids 80-112, Gen Bank ID: AAS87598.1, synthesized by Biosynthesis, Lewisville, Tex.) were surgically implanted within the peritoneal cavity of mice under sterile conditions and general anesthesia. Mice recovered for 7 days before exercise testing was performed.
Mice were housed in individual cages with free access to attached running wheels (Columbus Instruments, Columbus, Ohio). Running distance was calculated as 1/6πD·ΣRMPi, where D is wheel diameter and ΣRMPi is sum of averaged RPM values.

[2] = system: WT and Ostn-KO mice; assay: VO2 max / oxygen consumption on metabolic treadmill (indirect calorimetry) after musclin infusion; assay type: in vivo; conditions: for oxygen consumption, VO2, over time upon initiation of treadmill exercise: 3 weeks of musclin by osmotic pump
Source text: Natriuretic peptide/cGMP signaling is increasingly recognized as a key regulator of metabolic homeostasis, including effects on skeletal muscle mitochondrial biogenesis and oxidative phosphorylation potential. Maximal aerobic capacity (VO2 max) is commonly used to estimate overall aerobic fitness based on cardiopulmonary function and oxidative phosphorylation potential. To determine whether musclin production impacts aerobic capacity as a potential mechanism underlying differences in exercise tolerance, exercise-trained Ostn-KO and WT mice were monitored on a metabolic treadmill equipped for indirect calorimetry (Columbus instruments, Columbus Ohio). After 5 days of training, mice were placed on the stationary treadmill for 30 minutes and then were exposed to the protocol of escalating exercise workload to determine their VO2 max. […] To assess this, electron micrographs of longitudinal sections through tibialis anterior of exercised mice were examined and appear to show smaller mitochondrial size in the Ostn-KO compared to WT mice (FIG. 6B). […] Furthermore, disruption of normal musclin signaling appears to impact fiber type composition. Specifically, histologic examination of skeletal muscles from Ostn-KO vs. WT mice indicates a shift towards more pure glycolytic type IIb fibers in the KO (FIGS. 10A-10B). Differences between sedentary WT and Ostn-KO mice were less marked (FIGS. 11A-11G), which were consistent with the findings that exercise augments musclin signaling in the WT mice. […] The pattern of distribution of fiber types from muscles of sedentary WT and Ostn-KO was similar to that of their exercise-trained counterparts, consistent with a slower adaptation of fiber type to exercise, except that there was a slightly more prominent component of type IIA fibers in exercised mice (FIG. 12, n=4 each for tibialis anterior and n=3 each for biceps femoris, *p<0.05).
Whole body composition was obtained by time-domain nuclear magnetic resonance under isoflurane anesthesia (Bruker Minispec; Billerica, Mass.). […]
A multi-lane treadmill (Columbus Instruments, Columbus, Ohio) was used to simultaneously exercise model mice with their controls. […] For indirect calorimetry, oxygen consumption (VO2) and CO2 generation were measured using a two-lane modular treadmill connected to the Oxymax indirect calorimetry system (Columbus Instruments, Inc.). […]

[3] = target: T1, NPRB (Homo sapiens, UniProt P20594); conditions: background statement; without activating the linked guanylyl cyclase; cited from earlier work
T1 sequence (P20594 23-1047): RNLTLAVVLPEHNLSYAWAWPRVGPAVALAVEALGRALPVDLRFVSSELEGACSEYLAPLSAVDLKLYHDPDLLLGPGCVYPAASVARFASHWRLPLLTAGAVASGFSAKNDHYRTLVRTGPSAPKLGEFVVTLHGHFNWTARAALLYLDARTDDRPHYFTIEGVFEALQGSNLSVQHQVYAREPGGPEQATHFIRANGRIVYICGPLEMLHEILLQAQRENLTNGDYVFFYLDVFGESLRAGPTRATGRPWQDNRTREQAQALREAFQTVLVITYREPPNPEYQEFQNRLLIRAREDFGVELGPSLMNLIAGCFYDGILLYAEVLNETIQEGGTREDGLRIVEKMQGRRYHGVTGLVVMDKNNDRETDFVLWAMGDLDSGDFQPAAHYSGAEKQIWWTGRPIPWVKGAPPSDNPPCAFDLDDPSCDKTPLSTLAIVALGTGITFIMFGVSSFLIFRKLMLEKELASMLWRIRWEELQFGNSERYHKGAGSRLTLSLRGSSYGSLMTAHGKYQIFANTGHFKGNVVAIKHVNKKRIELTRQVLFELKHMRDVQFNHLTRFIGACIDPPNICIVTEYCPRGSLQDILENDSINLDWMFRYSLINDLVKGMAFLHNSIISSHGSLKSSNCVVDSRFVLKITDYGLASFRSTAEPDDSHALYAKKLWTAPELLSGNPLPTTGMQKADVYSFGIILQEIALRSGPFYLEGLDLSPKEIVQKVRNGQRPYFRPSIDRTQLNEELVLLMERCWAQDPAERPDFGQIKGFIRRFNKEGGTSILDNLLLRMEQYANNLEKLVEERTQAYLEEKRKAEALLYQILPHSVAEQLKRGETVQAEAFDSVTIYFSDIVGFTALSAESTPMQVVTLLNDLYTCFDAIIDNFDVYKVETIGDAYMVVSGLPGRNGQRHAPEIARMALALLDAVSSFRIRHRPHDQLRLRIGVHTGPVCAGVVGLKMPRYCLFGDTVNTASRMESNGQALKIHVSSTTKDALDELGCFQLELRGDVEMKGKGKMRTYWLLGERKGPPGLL

[4] = Ostn-KO mice treated with musclin by osmotic pump, night, n=4
[5] = WT mice treated with musclin by osmotic pump, night, n=5

## H-SFSGFGSPLDRLSAGSVEHRGKQRKAVDHSKKR-OH [musclin]
[1]; Ostn-KO mice treated with musclin by osmotic pump, n=4
  night-time mean velocity, voluntary running wheel: 53±15 rotations/5 min.
[1]; [4]
  distance run, voluntary running wheel: 2290±632 meters
  duration of running, voluntary running wheel: 333 ± 53 min
[1]; [5]
  distance, voluntary running wheel: 2202±280 meters
  duration, voluntary running wheel: 336 ± 39 min
  mean velocity, voluntary running wheel: 51±7 rotations/5 min.
[2]; Ostn-KO mice after 3 weeks of musclin infusion via osmotic pumps, n=3
  VO2 max: 136.6 ± 1.67 mL/min/kg
[2]; Ostn-KO mice, vs. WT treated with saline
  oxygen consumption, VO2, over time upon initiation of treadmill exercise: better than WT treated with saline once steady state was achieved
[2]; WT mice after 3 weeks of musclin infusion via osmotic pumps, n=4
  VO2 max: 133.9 ± 1.28 mL/min/kg
[2]; WT mice, vs. WT mice treated with saline
  oxygen consumption, VO2, over time upon initiation of treadmill exercise: slightly better for several time points
[3]
  binding to NPRB: weak binding
